These compounds were tested on HIV (assay: Table 1 IC50 of the examples (assay method not given; patent concerns inhibiting HIV replication)). Details: Human immunodeficiency virus 1.
Format: cell-based
Work on `Cc1cc2c(c(-c3cc(F)c4c(c3C)CCCO4)c1[C@H](OC(C)(C)C)C(=O)O)CCN2C(=O)c1cc(Cl)ccc1F` (atropisomer, axis not shown) [Example 145, (S)-2-(tert-Butoxy)-2-((R)-1-(5-chloro-2-fluorobenzoyl)-4-(8-fluoro-5-methylchroman-6-yl)-6-methylindolin-5-yl)acetic acid] yielded an IC50 of 14 nM. For `Cc1ccc(C(=O)N2CCc3c2cc(C)c([C@H](OC(C)(C)C)C(=O)O)c3-c2cc(F)c3c(c2C)CCCO3)cc1C(F)(F)F` (atropisomer, axis not shown) [Example 146, (S)-2-(tert-Butoxy)-2-((R)-4-(8-fluoro-5-methylchroman-6-yl)-6-methyl-1-(4-methyl-3-(trifluoromethyl)benzoyl)indolin-5-yl)acetic acid], the IC50 was 5 nM. `Cc1cc2c(c(-c3cc(F)c4c(c3C)CCCO4)c1[C@H](OC(C)(C)C)C(=O)O)CCN2C(=O)c1cc(Cl)cc(C(F)(F)F)c1` (atropisomer, axis not shown) [Example 147, (S)-2-(tert-Butoxy)-2-((R)-1-(3-chloro-5-(trifluoromethyl)benzoyl)-4-(8-fluoro-5-methylchroman-6-yl)-6-methylindolin-5-yl)acetic acid] gave an IC50 of 17 nM. Compound `Cc1cc2c(c(-c3cc(F)c4c(c3C)CCCO4)c1[C@H](OC(C)(C)C)C(=O)O)CCN2C(=O)c1ccc(Cl)c(C(F)(F)F)c1` (atropisomer, axis not shown) [Example 148, (S)-2-(tert-Butoxy)-2-((R)-1-(4-chloro-3-(trifluoromethyl)benzoyl)-4-(8-fluoro-5-methylchroman-6-yl)-6-methylindolin-5-yl)acetic acid] has an IC50 of 8 nM. Compound `Cc1ccc(Cl)cc1C(=O)N1CCc2c1cc(C)c([C@H](OC(C)(C)C)C(=O)O)c2-c1cc(F)c2c(c1C)CCCO2` (atropisomer, axis not shown) [Example 149] has an IC50 of 5 nM. With `Cc1cc2c(c(-c3cc(F)c4c(c3C)CCCO4)c1[C@H](OC(C)(C)C)C(=O)O)CCN2C(=O)c1cc(F)ccc1Cl` (atropisomer, axis not shown) [Example 150, (S)-2-(tert-Butoxy)-2-((R)-1-(2-chloro-5-fluorobenzoyl)-4-(8-fluoro-5-methylchroman-6-yl)-6-methylindolin-5-yl)acetic acid] the IC50 was 8 nM. `COc1ccc(C(=O)N2CCc3c2cc(C)c([C@H](OC(C)(C)C)C(=O)O)c3-c2cc(F)c3c(c2C)CCCO3)c(C(F)(F)F)c1` (atropisomer, axis not shown) [Example 152, (S)-2-(tert-Butoxy)-2-((R)-4-(8-fluoro-5-methylchroman-6-yl)-1-(4-methoxy-2-(trifluoromethyl)benzoyl)-6-methylindolin-5-yl)acetic acid] was tested, and the IC50 was 13 nM. `CNC(=O)c1cccc(C(=O)N2CCc3c2cc(C)c([C@H](OC(C)(C)C)C(=O)O)c3-c2cc(F)c3c(c2C)CCCO3)c1` (atropisomer, axis not shown) [Example 153, (S)-2-(tert-Butoxy)-2-((R)-4-(8-fluoro-5-methylchroman-6-yl)-6-methyl-1-(3-(methylcarbamoyl)benzoyl)indolin-5-yl)acetic acid] gave an IC50 of 125 nM. In the case of `Cc1cc2c(c(-c3cc(F)c4c(c3C)CCCO4)c1[C@H](OC(C)(C)C)C(=O)O)CCN2C(=O)c1cc(C(F)(F)F)ccc1Cl` (atropisomer, axis not shown) [Example 154, (S)-2-(tert-Butoxy)-2-((R)-1-(2-chloro-5-(trifluoromethyl)benzoyl)-4-(8-fluoro-5-methylchroman-6-yl)-6-methylindolin-5-yl)acetic acid], the IC50 is reported as 52 nM. With `Cc1cc2c(c(-c3cc(F)c4c(c3C)CCCO4)c1[C@H](OC(C)(C)C)C(=O)O)CCN2C(=O)c1cc(C(F)(F)F)ccc1F` (atropisomer, axis not shown) [Example 155, (S)-2-(tert-Butoxy)-2-((R)-1-(2-fluoro-5-(trifluoromethyl)benzoyl)-4-(8-fluoro-5-methylchroman-6-yl)-6-methylindolin-5-yl)acetic acid] the IC50 was 72 nM. `Cc1cc2c(c(-c3cc(F)c4c(c3C)CCCO4)c1[C@H](OC(C)(C)C)C(=O)O)CCN2C(=O)c1ccc(Cl)cc1C(F)(F)F` (atropisomer, axis not shown) [Example 156, (S)-2-(tert-Butoxy)-2-((R)-1-(4-chloro-2-(trifluoromethyl)benzoyl)-4-(8-fluoro-5-methylchroman-6-yl)-6-methylindolin-5-yl)acetic acid] gave an IC50 of 5 nM. `COc1ccc(C(=O)N2CCc3c2cc(C)c([C@H](OC(C)(C)C)C(=O)O)c3-c2cc(F)c3c(c2C)CCCO3)cc1C(F)(F)F` (atropisomer, axis not shown) [Example 157, (S)-2-(tert-Butoxy)-2-((R)-4-(8-fluoro-5-methylchroman-6-yl)-1-(4-methoxy-3-(trifluoromethyl)benzoyl)-6-methylindolin-5-yl)acetic acid] was tested, and the IC50 was 6 nM. Compound `COc1cc(C)ccc1C(=O)N1CCc2c1cc(C)c([C@H](OC(C)(C)C)C(=O)O)c2-c1cc(F)c2c(c1C)CCCO2` (atropisomer, axis not shown) [Example 159, (S)-2-(tert-Butoxy)-2-((R)-4-(8-fluoro-5-methylchroman-6-yl)-1-(2-methoxy-4-methylbenzoyl)-6-methylindolin-5-yl)acetic acid] has an IC50 of 4 nM. Compound `Cc1cc2c(c(-c3cc(F)c4c(c3C)CCCO4)c1[C@H](OC(C)(C)C)C(=O)O)CCN2C(=O)c1cccc(C(F)(F)F)c1F` (atropisomer, axis not shown) [Example 160, (S)-2-(tert-Butoxy)-2-((R)-1-(2-fluoro-3-(trifluoromethyl)benzoyl)-4-(8-fluoro-5-methylchroman-6-yl)-6-methylindolin-5-yl)acetic acid] has an IC50 of 14 nM. `Cc1cc2c(c(-c3cc(F)c4c(c3C)CCCO4)c1[C@H](OC(C)(C)C)C(=O)O)CCN2C(=O)C1CCC1` (atropisomer, axis not shown) [Example 161, (S)-2-(tert-Butoxy)-2-((R)-1-(cyclobutanecarbonyl)-4-(8-fluoro-5-methylchroman-6-yl)-6-methylindolin-5-yl)acetic acid] was tested, and the IC50 was 81 nM. For `COc1cccc(C(=O)N2CCc3c2cc(C)c([C@H](OC(C)(C)C)C(=O)O)c3-c2cc(F)c3c(c2C)CCCO3)c1` (atropisomer, axis not shown) [Example 162, (S)-2-(tert-Butoxy)-2-((R)-4-(8-fluoro-5-methylchroman-6-yl)-1-(3-methoxybenzoyl)-6-methylindolin-5-yl)acetic acid], the IC50 was 7 nM. For `COc1cc(C(F)(F)F)ccc1C(=O)N1CCc2c1cc(C)c([C@H](OC(C)(C)C)C(=O)O)c2-c1cc(F)c2c(c1C)CCCO2` (atropisomer, axis not shown) [Example 163, (S)-2-(tert-Butoxy)-2-((R)-4-(8-fluoro-5-methylchroman-6-yl)-1-(2-methoxy-4-(trifluoromethyl)benzoyl)-6-methylindolin-5-yl)acetic acid], the IC50 was 9 nM. With `Cc1cc2c(c(-c3cc(F)c4c(c3C)CCCO4)c1[C@H](OC(C)(C)C)C(=O)O)CCN2C(=O)c1cccc(C(=O)N2CCCCC2)c1` (atropisomer, axis not shown) [Example 164, (S)-2-(tert-Butoxy)-2-((R)-4-(8-fluoro-5-methylchroman-6-yl)-6-methyl-1-(3-(piperidine-1-carbonyl)benzoyl)indolin-5-yl)acetic acid] the IC50 was 176 nM. Work on `Cc1ccc(Cl)c(C(=O)N2CCc3c2cc(C)c([C@H](OC(C)(C)C)C(=O)O)c3-c2cc(F)c3c(c2C)CCCO3)c1` (atropisomer, axis not shown) [Example 165, (S)-2-(tert-Butoxy)-2-((R)-1-(2-chloro-5-methylbenzoyl)-4-(8-fluoro-5-methylchroman-6-yl)-6-methylindolin-5-yl)acetic acid] yielded an IC50 of 6 nM. `Cc1cc2c(c(-c3cc(F)c4c(c3C)CCCO4)c1[C@H](OC(C)(C)C)C(=O)O)CCN2C(=O)c1cccc2c1OCCC2` (atropisomer, axis not shown) [Example 166, (S)-2-(tert-butoxy)-2-((R)-1-(chromane-8-carbonyl)-4-(8-fluoro-5-methylchroman-6-yl)-6-methylindolin-5-yl)acetic acid] gave an IC50 of 4 nM. For `COc1ccc(F)c(C(=O)N2CCc3c2cc(C)c([C@H](OC(C)(C)C)C(=O)O)c3-c2cc(F)c3c(c2C)CCCO3)c1` (atropisomer, axis not shown) [Example 167, (S)-2-(tert-Butoxy)-2-((R)-1-(2-fluoro-5-methoxybenzoyl)-4-(8-fluoro-5-methylchroman-6-yl)-6-methylindolin-5-yl)acetic acid], the IC50 was 7 nM. `COc1ccc(C(=O)N2CCc3c2cc(C)c([C@H](OC(C)(C)C)C(=O)O)c3-c2cc(F)c3c(c2C)CCCO3)c(C)c1` (atropisomer, axis not shown) [Example 168, (S)-2-(tert-Butoxy)-2-((R)-4-(8-fluoro-5-methylchroman-6-yl)-1-(4-methoxy-2-methylbenzoyl)-6-methylindolin-5-yl)acetic acid] showed an IC50 of 13 nM. `Cc1cc2c(c(-c3cc(F)c4c(c3C)CCCO4)c1[C@H](OC(C)(C)C)C(=O)O)CCN2C(=O)c1cccc2c1CCCO2` (atropisomer, axis not shown) [Example 169, (S)-2-(tert-Butoxy)-2-((R)-1-(chromane-5-carbonyl)-4-(8-fluoro-5-methylchroman-6-yl)-6-methylindolin-5-yl)acetic acid] was tested, and the IC50 was 2 nM. `COc1ccc(C(=O)N2CCc3c2cc(C)c([C@H](OC(C)(C)C)C(=O)O)c3-c2cc(F)c3c(c2C)CCCO3)cn1` (atropisomer, axis not shown) [Example 170, (S)-2-(tert-Butoxy)-2-((R)-4-(8-fluoro-5-methylchroman-6-yl)-1-(6-methoxynicotinoyl)-6-methylindolin-5-yl)acetic acid] was tested, and the IC50 was 14 nM. For `COc1cnccc1C(=O)N1CCc2c1cc(C)c([C@H](OC(C)(C)C)C(=O)O)c2-c1cc(F)c2c(c1C)CCCO2` (atropisomer, axis not shown) [Example 171, (S)-2-(tert-Butoxy)-2-((R)-4-(8-fluoro-5-methylchroman-6-yl)-1-(3-methoxyisonicotinoyl)-6-methylindolin-5-yl)acetic acid], the IC50 was 14 nM.

— US20190284136A1, “INDOLINE DERIVATIVES” (ViiV HEALTHCARE UK LIMITED, priority 2016, published 2019)
